Values of other authors as cited in patent US20240173272A1 (LUPIN ATLANTIS HOLDINGS SA, priority 2021, published 2024).

Key:
[1] = oral administration
[2] = weak base

- bioavailability [1]: about 90%
- pKa [2]: about 9.1
SMILES: Cc1cccc(C)c1OCC(C)N (centres unmarked) [Mexiletine]
